Data on 24 compounds can be found in US20230203043A1, “NOVEL IMIDAZOPYRAZINE DERIVATIVES” (Hoffmann-La Roche Inc., priority 2020, published 2023).

SMILES strings stand for the structures. Counter-ions that a name gives are not always drawn.

One experiment has as its system Acinetobacter baumannii ATCC17961. Put plainly: Antimicrobial susceptibility testing: 90% growth inhibitory concentration (IC90) determination in Iso-Sensitest broth, OD600 growth. To be noted: Acinetobacter baumannii, ATCC17961, 16 h, read-out: A. baumannii ATCC 17961 IC90 (uM), strain ATCC 17961, OD600 growth over 16 h. It counts as cell-based. Put shortly:
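Serial twofold dilution, 10 points, e.g. 50–0.097 μM final; ~5×10^(5) CFU/ml; 35±2° C, 16 h; kinetic OD600 every 20 min; IC90 from log-phase inhibition.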
Broadly, the IC90 is the concentration needed for an effect of 90%. On to `CCc1cc(Nc2nccn3c(-c4cn(CC(F)F)nc4C(F)(F)F)cnc23)ccc1C(=O)NCCCNC(=O)[C@H]1CC[C@@H](N)C1` [Example 485, N-(3-((1S,3R)-3-aminocyclopentane-1-carboxamido)propsl)-4-((3-(1-(2,2-difluoroethyl)-3-(trifluoromethyl)-1H-pyrazol-4-yl)imidazo[1,2-a]pyrazin-8-yl)amino)-2-ethylbenzamide formate], for which the IC90 is 0.189 µM.
The same measure, in the same setting: the same measure for `CCc1cc(Nc2nccn3c(-c4cn(CC(F)F)nc4C(F)(F)F)cnc23)ccc1C(=O)NCC1CC1N` (stereo not drawn) [Example 641, N-((2-aminocyclopropyl)methyl)-4-((3-(1-(2,2-difluoroethyl)-3-(trifluoromethyl)-1H-pyrazol-4-yl)imidazo[1,2-a]pyrazin-8-yl)amino)-2-ethylbenzamide formate]: 0.231 µM.
Same read-out and setting: the result for `CCc1cc(Nc2nccn3c(-c4cn(CC#N)nc4C(F)(F)F)cnc23)ccc1C(=O)NCC(=O)N1CCC(CN)C1` (stereo not drawn) [Example 509, N-[2-[3-(aminomethyl)pyrrolidin-1-yl]-2-oxo-ethyl]-4-[[3-[1-(cyanomethyl)-3-(trifluoromethyl)pyrazol-4-yl]imidazo[1,2-a]pyrazin-8-yl]amino]-2-ethyl-benzamide formate] reads 0.23 µM; that for `NCCCC(=O)N1CCN(C(=O)c2ccc(Nc3nccn4c(-c5c[nH]nc5C(F)(F)F)cnc34)cc2Cl)CC1` [Example 399, 4-amino-1-[4-[2-chloro-4-[[3-[3-(trifluoromethyl)-1H-pyrazol-4-yl]imidazo[1,2-a]pyrazin-8-yl]amino]benzoyl]piperazin-1-yl]butan-1-one formate], 0.214 µM.
For `CCc1cc(Nc2nccn3c(-c4cn(C(CO)CCl)nc4C(F)(F)F)cnc23)ccc1C(=O)NCCOCCN` (stereo not drawn) [Example 278, N-[2-(2-aminoethoxy)ethyl]-4-[[3-[1-(1-chloro-3-hydroxypropan-2-yl)-3-(trifluoromethyl)pyrazol-4-yl]imidazo[1,2-a]pyrazin-8-yl]amino]-2-ethylbenzamide formate], the concentration for an effect of 90% (IC90) is 0.332 µM.
As for `C#CCn1cc(-c2cnc3c(Nc4ccc(C(=O)NCCCNCCCCNCCCN)c(CC)c4)nccn23)c(C(F)(F)F)n1` [Example 155, N-[3-[4-(3-aminopropylamino)butylamino]propyl]-2-ethyl-4-[[3-[1-prop-2-ynyl-3-(trifluoromethyl)pyrazol-4-yl]imidazo[1,2-a]pyrazin-8-yl]amino]benzamide trifluoroacetate], the IC90 stood at 0.585 µM.
The same measure, in the same setting: the result for `Cc1cc(Nc2nccn3c(-c4c[nH]nc4C(F)(F)F)cnc23)ccc1C(=O)N1CCN(C(=O)C2(O)CCNCC2)CC1` [Example 460, formic acid; [4-(4-hydroxypiperidine-4-carbonyl)piperazin-1-yl]-[2-methyl-4-[[3-[3-(trifluoromethyl)-1H-pyrazol-4-yl]imidazo[1,2-a]pyrazin-8-yl]amino]phenyl]methanone] reads 0.896 µM; that for `Cc1cc(Nc2nccn3c(-c4cn(CC#N)nc4C(F)(F)F)cnc23)ccc1C(=O)N[C@H](C)C(=O)N1CCNCC1` [Example 726, 4-[[3-[1-(cyanomethyl)-3-(trifluoromethyl)pyrazol-4-yl]imidazo[1,2-a]pyrazin-8-yl]amino]-2-methyl-N-[(1R)-1-methyl-2-oxo-2-piperazin-1-yl-ethyl]benzamide formate], 0.463 µM.
The same measure, in the same setting: the result for `CCc1cc(Nc2nccn3c(-c4cn(CC(C)(CO)CCl)nc4C(F)(F)F)cnc23)ccc1C(=O)NCCOCCN` (stereo not drawn) [Example 279, N-[2-(2-aminoethoxy)ethyl]-4-[[3-[1-[2-(chloromethyl)-3-hydroxy-2-methylpropyl]-3-(trifluoromethyl)pyrazol-4-yl]imidazo[1,2-a]pyrazin-8-yl]amino]-2-ethylbenzamide formate] reads 0.664 µM.
Turning to `CCc1cc(Nc2nccn3c(-c4cn(CCC#N)nc4C(F)(F)F)cnc23)ccc1C(=O)NCCOCCN` [Example 33, N-[2-(2-aminoethoxy)ethyl]-4-[[3-[1-(2-cyanoethyl)-3-(trifluoromethyl)pyrazol-4-yl]imidazo[1,2-a]pyrazin-8-yl]amino]-2-ethylbenzamide formate], the concentration for an effect of 90% (IC90) was found to be 0.269 µM.
Same read-out and setting: the result for `CCc1cc(Nc2nccn3c(-c4cn(CC(O)CO)nc4C(F)(F)F)cnc23)ccc1C(=O)NCCOCCN` (stereo not drawn) [Example 314, N-[2-(2-aminoethoxy)ethyl]-4-[[3-[1-(2,3-dihydroxypropyl)-3-(trifluoromethyl)pyrazol-4-yl]imidazo[1,2-a]pyrazin-8-yl]amino]-2-ethylbenzamide formate] reads 1.43 µM.

The experiment is the same for the next values; noted with them: Acinetobacter baumannii, ATCC17961, 16 h, strain ATCC 17961, OD600 growth over 16 h, read-out: A. baumannii ATCC 17961 IC90.
For the compound `O=C(c1ccc(Nc2nccn3c(-c4cn(CC(F)F)nc4C(F)(F)F)cnc23)cc1Cl)N1CC2(C1)CN(C(=O)[C@@H]1CCCN1)C2` [Example 635, (S)-(2-chloro-4-((3-(1-(2,2-difluoroethyl)-3-(trifluoromethyl)-1H-pyrazol-4-yl)imidazo[1,2-a]pyrazin-8-yl)amino)phenyl)(6-prolyl-2,6-diazaspiro [3.3]heptan-2-yl)methanone], the IC90 is 0.22 µM.
On the same count and under the same terms, the result for `Cc1cc(Nc2nccn3c(-c4cn(CC#N)nc4C(F)(F)F)cnc23)cc(F)c1C(=O)N1CCN(C(=O)[C@H]2C[C@@H](N)C2)CC1` [Example 699, 2-(4-(8-((4-(4-((1s,3s)-3-aminocyclobutane-1-carbonyl)piperazine-1-carbonyl)-3-fluoro-5-methylphenyl)amino)imidazo[1,2-a]pyrazin-3-yl)-3-(trifluoromethyl)-1H-pyrazol-1-yl) acetonitrile formate] reads 0.38 µM; that for `CCc1cc(Nc2nccn3c(-c4cn(CC(F)F)nc4C(F)(F)F)cnc23)ccc1C(=O)NCCNC(=O)[C@H]1C[C@H](N)C1` [Example 488, N-(2-((1r,3r)-3-aminocyclobutane-1-carboxamido)ethyl)-4-((3-(1-(2,2-difluoroethyl)-3-(trifluoromethyl)-1H-pyrazol-4-yl)imidazo[1,2-a]pyrazin-8-yl)amino)-2-ethylbenzamide formate], 0.147 µM.
`C[C@@H](N)C(=O)N1CCN(C(=O)c2ccc(Nc3nccn4c(-c5c[nH]nc5C(F)(F)F)cnc34)cc2Cl)CC1` [Example 207, (2R)-2-amino-1-[4-[2-chloro-4-[[3-[3-(trifluoromethyl)-1H-pyrazol-4-yl]imidazo[1,2-a]pyrazin-8-yl]amino]benzoyl]piperazin-1-yl]propan-1-one]: the 90% effect concentration (IC90) was 0.205 µM.
Still for that read-out and setting: the result for `CCc1cc(Nc2nccn3c(-c4c[nH]nc4C(F)(F)F)cnc23)ccc1C(=O)NCCCNC(=O)[C@@H](N)CNC(=N)N` [Example 13, N-[3-[[(2S)-2-amino-3-carbamimidamidopropanoyl]amino]propyl]-2-ethyl-4-[[3-[3-(trifluoromethyl)-1H-pyrazol-4-yl]imidazo[1,2-a]pyrazin-8-yl]amino]benzamide formate] reads 0.166 µM; that for `CCc1cc(Nc2nccn3c(-c4cn(CC#N)nc4C(F)(F)F)cnc23)ccc1C(=O)NCCNC(=O)N1CC[C@H](N)C1` [Example 577, (S)-3-amino-N-(2-(4-((3-(1-(cyanomethyl)-3-(trifluoromethyl)-1H-pyrazol-4-yl)imidazo[1,2-a]pyrazin-8-yl)amino)-2-ethylbenzamido)ethyl) pyrrolidine-1-carboxamide formate], 0.395 µM.
For the compound `NCCCC(=O)NCCCNC(=O)c1ccc(Nc2nccn3c(-c4c[nH]nc4C(F)(F)F)cnc23)cc1Cl` [Example 344, N-[3-(4-aminobutanoylamino)propyl]-2-chloro-4-[[3-[3-(trifluoromethyl)-1H-pyrazol-4-yl]imidazo[1,2-a]pyrazin-8-yl]amino]benzamide formate], the IC90 was found to be 0.572 µM.
With `NCC(=O)N1CCN(C(=O)c2ccc(Nc3nccn4c(-c5cn(CC(F)F)nc5C(F)(F)F)cnc34)cc2F)CC1` [Example 812, 2-amino-1-(4-(4-(3-(1-2,2-difluoroethyl)-3-(trifluoromethyl)-1H-pyrazol-4-yl)imidazo[1,2-a]pyrazin-8-yl)amino)-2-fluorobenzoyl) piperazin-1-yl) ethan-1-one hydrochloride], the concentration for an effect of 90% (IC90) was 0.2 µM.
On the same count and under the same terms, the same measure for `CCc1cc(Nc2nccn3c(-c4cn(CC(F)F)nc4C(F)(F)F)cnc23)ccc1C(=O)NCC(=O)N1CC(N)C1` [Example 733, N-[2-(3-aminoazetidin-1-yl)-2-oxo-ethyl]-4-[[3-[1-(2,2-difluoroethyl)-3-(trifluoromethyl)pyrazol-4-yl]imidazo[1,2-a]pyrazin-8-yl]amino]-2-ethyl-benzamide]: 0.481 µM; for `CCc1cc(Nc2nccn3c(-c4c[nH]nc4C(F)(F)F)cnc23)ccc1C(=O)NCCNC(=O)[C@H]1CC[C@@H](N)C1` [Example 724, N-(2-((1S,3R)-3-aminocyclopentane-1-carboxamido)ethyl)-2-ethyl-4-((3-(3-(trifluoromethyl)-1H-pyrazol-4-yl)imidazo[1,2-a]pyrazin-8-yl)amino)benzamide]: 0.459 µM.
Turning to `CCc1cc(Nc2nccn3c(-c4c[nH]nc4C(F)(F)F)cnc23)ccc1C(=O)N[C@H](C)CNC(=O)[C@@H]1CCCN1` [Example 762, (S)-N-((R)-2-(2-ethyl-4-((3-(3-(trifluoromethyl)-1H-pyrazol-4-yl)imidazo[1,2-a]pyrazin-8-yl)amino)benzamido)propyl) pyrrolidine-2-carboxamide], the concentration for an effect of 90% (IC90) is 0.722 µM.
Turning to `CNC(=O)c1ccc(Nc2nccn3c(-c4cn(CCCC#N)nc4C(F)(F)F)cnc23)cc1Cl` [Example 359, 2-chloro-4-[[3-[1-(3-cyanopropyl)-3-(trifluoromethyl)pyrazol-4-yl]imidazo[1,2-a]pyrazin-8-yl]amino]-N-methylbenzamide], the IC90 stood at 0.303 µM.
Still for that read-out and setting: the same measure for `N#CCn1cc(-c2cnc3c(Nc4ccc(C(=O)NCCNCC(=O)NC5CNC5)c(Cl)c4)nccn23)c(C(F)(F)F)n1` [Example 816, N-(2-(2-(azetidin-3-ylamino)-2-oxoethyl)amino) ethyl)-2-chloro-4-((3-(1-(cyanomethyl)-3-(trifluoromethyl)-1H-pyrazol-4-yl)imidazo[1,2-a]pyrazin-8-yl)amino) benzamide formate]: 0.29 µM.
